One compound from patent EP0357416A2, “Use of serotonin antagonists in the treatment of drug addiction” (GLAXO GROUP LIMITED, priority 1988, dated 1990) can be followed below.

The subject of one test is Alcohol-preferring rats. Put plainly: Alcohol consumption test in rats (computerised drinkometer). The format is in vivo, Male Wistar rats. Conditions: 6% v/v ethanol, 0.1µg/kg i.p. once daily for 7 days, 1h prior to the 12h dark cycle. On the procedure: Male Wistar rats, initially weighing 200g, were housed individually in suspended stainless steel cages. The animal colony room was controlled for temperature (22-24°C) and humidity (55%) and was maintained on a 12-hour dark-light cycle which began at 1900 hours. Rats were allowed free access to food, water and ethanol solutions. Water and ethanol solutions were presented in two custom-designed drinkometer tubes mounted on the front of each rat cage. To avoid bias generated by a position preference, the tube positions were randomly reversed on each ethanol presentation. Water and ethanol consumption were continuously monitored daily during the drinking cycle (1900 to 0700h). Minute-to-minute ethanol and water volume consumptions were recorded using a computerised drinkometer system. This system consists of pressure transducers embedded in the base of the drinking tube and accurately detects significant volume changes as small as 0.1ml. Ethanol drinking solutions were prepared by diluting 95% ethyl alcohol with distilled water to form 6% v/v concentrations. From the minute-to-minute volume recordings, the following variables were calculated : total ethanol volume; total ethanol preference; weight-adjusted ethanol volume and total minutes of ethanol drinking activity. […]

In the next test the test system is Rats. In words: Rat social interaction test (withdrawal from chronic treatment with a drug or substance of abuse). It is filed as in vivo. Conditions: rats withdrawn after diazepam 10mg/kg i.p. b.d. for 14 days; test compound 1µg/kg i.p. once daily immediately after withdrawal. On the procedure: The method was based on that described by S. E. File, J. Neurosci. Methods, 1980, 2, 219-238. Rats were treated chronically with diazepam (10mg/kg i.p. b.d.) for 14 days and then withdrawn.

As for `Cc1[nH]cnc1CN1CCc2c(c3ccccc3n2C)C1=O.Cl` [test compound, 2,3,4,5-tetrahydro-5-methyl-2-[(5-methyl-1H-imidazol-4-yl)methyl]-1H-pyrido[4,3-b]indol-1-one hydrochloride], in the test on Alcohol-preferring rats, the ethanol drinking time result is recorded as “reduced” and the ethanol intake result was “reduced”. Also, the “withdrawal response (reduced social interaction)” value in the test on Rats is “the withdrawal response was not observed”.
